Assay results reported in PubChem BioAssay (NCI).
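Protocol summary: plate cells (96-well), add compound at 5 concentrations, incubate 48 h, interpolate endpoints linearly. Abbreviation: GI50, concentration required for 50% inhibition of growth. TGI: total growth inhibition.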

Experiments:
Assay in all cases: NCI tumour cell line growth inhibition, 48 h
RPMI-8226 leukemia = system: RPMI-8226 leukemia
BT-549 breast = system: BT-549 breast
A549 NSCLC = system: A549 NSCLC
NCI-H23 lung = system: NCI-H23 lung
MCF7 breast = system: MCF7 breast
SK-MEL-2 melanoma = system: SK-MEL-2 melanoma
UACC-257 melanoma = system: UACC-257 melanoma
CCRF-CEM leukemia = system: CCRF-CEM leukemia
UO-31 renal = system: UO-31 renal
SK-MEL-5 melanoma = system: SK-MEL-5 melanoma
NCI-H226 lung = system: NCI-H226 lung
PC-3 prostate = system: PC-3 prostate
MDA-MB-435 = system: MDA-MB-435
HS 578T breast = system: HS 578T breast
786-0 renal = system: 786-0 renal
RXF 393 renal = system: RXF 393 renal
K-562 leukemia = system: K-562 leukemia
NCI/ADR-RES ovarian = system: NCI/ADR-RES ovarian
SW-620 colon = system: SW-620 colon
HOP-92 NSCLC = system: HOP-92 NSCLC
COLO 205 colon = system: COLO 205 colon
OVCAR-3 ovarian = system: OVCAR-3 ovarian
T-47D breast = system: T-47D breast
M14 melanoma = system: M14 melanoma
NCI-H460 lung = system: NCI-H460 lung
EKVX NSCLC = system: EKVX NSCLC
MALME-3M melanoma = system: MALME-3M melanoma
NCI-H522 lung = system: NCI-H522 lung
MOLT-4 leukemia = system: MOLT-4 leukemia
ACHN renal = system: ACHN renal
UACC-62 melanoma = system: UACC-62 melanoma
DU-145 prostate = system: DU-145 prostate
HCT-116 colon = system: HCT-116 colon
HL-60(TB) leukemia = system: HL-60(TB) leukemia
CAKI-1 renal = system: CAKI-1 renal
HCT-15 colon = system: HCT-15 colon
OVCAR-4 ovarian = system: OVCAR-4 ovarian
SF-295 CNS = system: SF-295 CNS
A498 renal = system: A498 renal
SR leukemia = system: SR leukemia
SN12C renal = system: SN12C renal
HCC-2998 colon = system: HCC-2998 colon
TK-10 renal = system: TK-10 renal
SF-268 CNS = system: SF-268 CNS
OVCAR-8 ovarian = system: OVCAR-8 ovarian
OVCAR-5 ovarian = system: OVCAR-5 ovarian
IGROV1 ovarian = system: IGROV1 ovarian
MDA-MB-231 breast = system: MDA-MB-231 breast
KM12 colon = system: KM12 colon
U251 CNS = system: U251 CNS
SF-539 CNS = system: SF-539 CNS
SK-OV-3 ovarian = system: SK-OV-3 ovarian
HOP-62 NSCLC = system: HOP-62 NSCLC
SNB-75 CNS = system: SNB-75 CNS
SK-MEL-28 melanoma = system: SK-MEL-28 melanoma
LOX IMVI melanoma = system: LOX IMVI melanoma
SNB-19 CNS = system: SNB-19 CNS
HT29 colon = system: HT29 colon

**Q.** Which GI50 (RPMI-8226 leukemia) does the source give for `O=C1C(=O)c2c(nc3ccc(Br)cn23)-c2ccccc21` here?
**A.** 388 nM

**Q.** What about the TGI (RPMI-8226 leukemia) of the same compound?
**A.** 2670 nM

**Q.** What about the GI50 (BT-549 breast) of the same compound?
**A.** 1370 nM

**Q.** What about the TGI (BT-549 breast) of the same compound?
**A.** 2670 nM

**Q.** What about the GI50 (A549 NSCLC) of the same compound?
**A.** 1660 nM

**Q.** And the TGI (A549 NSCLC)?
**A.** 3810 nM

**Q.** And the GI50 (NCI-H23 lung)?
**A.** 372 nM

**Q.** What about the TGI (NCI-H23 lung) of the same compound?
**A.** 2510 nM

**Q.** And the GI50 (MCF7 breast)?
**A.** 385 nM

**Q.** And the TGI (MCF7 breast)?
**A.** 1080 nM

**Q.** And the GI50 (SK-MEL-2 melanoma)?
**A.** 596 nM

**Q.** What about the TGI (SK-MEL-2 melanoma) of the same compound?
**A.** 1990 nM

**Q.** What about the GI50 (UACC-257 melanoma) of the same compound?
**A.** 747 nM

**Q.** And the TGI (UACC-257 melanoma)?
**A.** 2090 nM

**Q.** What about the GI50 (CCRF-CEM leukemia) of the same compound?
**A.** 1250 nM

**Q.** And the TGI (CCRF-CEM leukemia)?
**A.** 5180 nM

**Q.** What about the GI50 (UO-31 renal) of the same compound?
**A.** 480 nM

**Q.** And the TGI (UO-31 renal)?
**A.** 1240 nM

**Q.** And the GI50 (SK-MEL-5 melanoma)?
**A.** 317 nM

**Q.** What about the TGI (SK-MEL-5 melanoma) of the same compound?
**A.** 788 nM

**Q.** What about the GI50 (NCI-H226 lung) of the same compound?
**A.** 1610 nM

**Q.** And the TGI (NCI-H226 lung)?
**A.** 3410 nM

**Q.** And the GI50 (PC-3 prostate)?
**A.** 688 nM

**Q.** And the TGI (PC-3 prostate)?
**A.** 2470 nM

**Q.** What about the GI50 (MDA-MB-435) of the same compound?
**A.** 185 nM

**Q.** And the TGI (MDA-MB-435)?
**A.** 334 nM

**Q.** What about the GI50 (HS 578T breast) of the same compound?
**A.** 438 nM

**Q.** And the TGI (HS 578T breast)?
**A.** 2230 nM

**Q.** What about the GI50 (786-0 renal) of the same compound?
**A.** 1850 nM

**Q.** What about the TGI (786-0 renal) of the same compound?
**A.** 3360 nM

**Q.** And the GI50 (RXF 393 renal)?
**A.** 1550 nM

**Q.** And the TGI (RXF 393 renal)?
**A.** 2970 nM

**Q.** And the GI50 (K-562 leukemia)?
**A.** 244 nM

**Q.** What about the TGI (K-562 leukemia) of the same compound?
**A.** 1040 nM

**Q.** And the GI50 (NCI/ADR-RES ovarian)?
**A.** 699 nM

**Q.** And the TGI (NCI/ADR-RES ovarian)?
**A.** 3870 nM

**Q.** And the GI50 (SW-620 colon)?
**A.** 622 nM

**Q.** What about the TGI (SW-620 colon) of the same compound?
**A.** 1760 nM

**Q.** What about the GI50 (HOP-92 NSCLC) of the same compound?
**A.** 1220 nM

**Q.** And the TGI (HOP-92 NSCLC)?
**A.** 2700 nM

**Q.** And the GI50 (COLO 205 colon)?
**A.** 1780 nM

**Q.** What about the TGI (COLO 205 colon) of the same compound?
**A.** 3550 nM

**Q.** And the GI50 (OVCAR-3 ovarian)?
**A.** 265 nM

**Q.** What about the TGI (OVCAR-3 ovarian) of the same compound?
**A.** 889 nM

**Q.** What about the GI50 (T-47D breast) of the same compound?
**A.** 1440 nM

**Q.** And the TGI (T-47D breast)?
**A.** 3890 nM

**Q.** And the GI50 (M14 melanoma)?
**A.** 489 nM

**Q.** And the TGI (M14 melanoma)?
**A.** 1020 nM

**Q.** What about the GI50 (NCI-H460 lung) of the same compound?
**A.** 1090 nM

**Q.** And the TGI (NCI-H460 lung)?
**A.** 2690 nM

**Q.** What about the GI50 (EKVX NSCLC) of the same compound?
**A.** 1540 nM

**Q.** What about the TGI (EKVX NSCLC) of the same compound?
**A.** 3310 nM

**Q.** And the GI50 (MALME-3M melanoma)?
**A.** 190 nM

**Q.** And the TGI (MALME-3M melanoma)?
**A.** 371 nM

**Q.** What about the GI50 (NCI-H522 lung) of the same compound?
**A.** 588 nM

**Q.** What about the TGI (NCI-H522 lung) of the same compound?
**A.** 2220 nM

**Q.** What about the GI50 (MOLT-4 leukemia) of the same compound?
**A.** 447 nM

**Q.** What about the TGI (MOLT-4 leukemia) of the same compound?
**A.** 2220 nM

**Q.** And the GI50 (ACHN renal)?
**A.** 452 nM

**Q.** What about the TGI (ACHN renal) of the same compound?
**A.** 1550 nM

**Q.** What about the GI50 (UACC-62 melanoma) of the same compound?
**A.** 365 nM

**Q.** And the TGI (UACC-62 melanoma)?
**A.** 1270 nM

**Q.** And the GI50 (DU-145 prostate)?
**A.** 483 nM

**Q.** What about the TGI (DU-145 prostate) of the same compound?
**A.** 1030 nM

**Q.** What about the GI50 (HCT-116 colon) of the same compound?
**A.** 314 nM

**Q.** And the TGI (HCT-116 colon)?
**A.** 1200 nM

**Q.** What about the GI50 (HL-60(TB) leukemia) of the same compound?
**A.** 242 nM

**Q.** And the TGI (HL-60(TB) leukemia)?
**A.** 624 nM

**Q.** And the GI50 (CAKI-1 renal)?
**A.** 1520 nM

**Q.** What about the TGI (CAKI-1 renal) of the same compound?
**A.** 3010 nM

**Q.** What about the GI50 (HCT-15 colon) of the same compound?
**A.** 759 nM

**Q.** What about the TGI (HCT-15 colon) of the same compound?
**A.** 2660 nM

**Q.** And the GI50 (OVCAR-4 ovarian)?
**A.** 191 nM

**Q.** And the TGI (OVCAR-4 ovarian)?
**A.** 398 nM

**Q.** And the GI50 (SF-295 CNS)?
**A.** 1610 nM

**Q.** And the TGI (SF-295 CNS)?
**A.** 3020 nM

**Q.** And the GI50 (A498 renal)?
**A.** 1510 nM

**Q.** And the TGI (A498 renal)?
**A.** 2870 nM

**Q.** And the GI50 (SR leukemia)?
**A.** 330 nM

**Q.** What about the TGI (SR leukemia) of the same compound?
**A.** 1520 nM

**Q.** And the GI50 (SN12C renal)?
**A.** 329 nM

**Q.** And the TGI (SN12C renal)?
**A.** 806 nM

**Q.** What about the GI50 (HCC-2998 colon) of the same compound?
**A.** 1930 nM

**Q.** And the TGI (HCC-2998 colon)?
**A.** 3510 nM

**Q.** And the GI50 (TK-10 renal)?
**A.** 2280 nM

**Q.** And the TGI (TK-10 renal)?
**A.** 3780 nM

**Q.** What about the GI50 (SF-268 CNS) of the same compound?
**A.** 543 nM

**Q.** What about the TGI (SF-268 CNS) of the same compound?
**A.** 1970 nM

**Q.** And the GI50 (OVCAR-8 ovarian)?
**A.** 575 nM

**Q.** What about the TGI (OVCAR-8 ovarian) of the same compound?
**A.** 1680 nM

**Q.** And the GI50 (OVCAR-5 ovarian)?
**A.** 1780 nM

**Q.** And the TGI (OVCAR-5 ovarian)?
**A.** 3250 nM

**Q.** What about the GI50 (IGROV1 ovarian) of the same compound?
**A.** 1050 nM

**Q.** And the TGI (IGROV1 ovarian)?
**A.** 2740 nM

**Q.** And the GI50 (MDA-MB-231 breast)?
**A.** 465 nM

**Q.** And the TGI (MDA-MB-231 breast)?
**A.** 2860 nM

**Q.** What about the GI50 (KM12 colon) of the same compound?
**A.** 1550 nM

**Q.** What about the TGI (KM12 colon) of the same compound?
**A.** 3190 nM

**Q.** What about the GI50 (U251 CNS) of the same compound?
**A.** 588 nM

**Q.** What about the TGI (U251 CNS) of the same compound?
**A.** 1870 nM

**Q.** And the GI50 (SF-539 CNS)?
**A.** 472 nM

**Q.** What about the TGI (SF-539 CNS) of the same compound?
**A.** 1010 nM

**Q.** What about the GI50 (SK-OV-3 ovarian) of the same compound?
**A.** 1710 nM

**Q.** What about the TGI (SK-OV-3 ovarian) of the same compound?
**A.** 3090 nM

**Q.** What about the GI50 (HOP-62 NSCLC) of the same compound?
**A.** 1590 nM

**Q.** What about the TGI (HOP-62 NSCLC) of the same compound?
**A.** 3040 nM

**Q.** And the GI50 (SNB-75 CNS)?
**A.** 738 nM

**Q.** And the TGI (SNB-75 CNS)?
**A.** 2370 nM

**Q.** What about the GI50 (SK-MEL-28 melanoma) of the same compound?
**A.** 606 nM

**Q.** And the TGI (SK-MEL-28 melanoma)?
**A.** 1560 nM

**Q.** What about the GI50 (LOX IMVI melanoma) of the same compound?
**A.** 242 nM

**Q.** What about the TGI (LOX IMVI melanoma) of the same compound?
**A.** 689 nM

**Q.** What about the GI50 (SNB-19 CNS) of the same compound?
**A.** 1410 nM

**Q.** And the TGI (SNB-19 CNS)?
**A.** 2720 nM

**Q.** And the GI50 (HT29 colon)?
**A.** 2440 nM

**Q.** And the TGI (HT29 colon)?
**A.** 6120 nM
